# Test results published in the supplement of paper PMC4932681.
# Counter-ions that a name gives are not always drawn.
# What was measured:
# Assay in all cases: viability inhibition at highest dose (% inhibition); higher = more growth inhibition
# BT-474 Tam2 = details: 4-OH-tamoxifen in medium 1 µM; 72 h
# Protocol: (§1)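 Percent inhibition of viability (CellTiter-Glo, 72 h) at the highest tested concentration (D5), normalised to DMSO (0%) and 100 µM benzethonium chloride (100%). Resistant lines and the 'in 1µM tamoxifen' arms were tested in 1 µM 4-OH-tamoxifen.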
# T-47D Tam1 = details: 4-OH-tamoxifen in medium 1 µM; 72 h
# Protocol: as §1
# T-47D Tam2 = details: 4-OH-tamoxifen in medium 1 µM; 72 h
# Protocol: as §1
# ZR-75-1 Tam2 = details: 4-OH-tamoxifen in medium 1 µM; 72 h
# Protocol: as §1
# BT-474 = details: 72 h
# Protocol: as §1
# BT-474 Tam1 = details: 4-OH-tamoxifen in medium 1 µM; 72 h
# Protocol: as §1
# MCF-7 Tam1 = details: 4-OH-tamoxifen in medium 1 µM; 72 h
# Protocol: as §1
# MCF-7 = details: 72 h
# Protocol: as §1
# ZR-75-1 = details: 72 h
# Protocol: as §1
# T-47D = details: 72 h
# Protocol: as §1
# ZR-75-1 Tam1 = details: 4-OH-tamoxifen in medium 1 µM; 72 h
# Protocol: as §1
Structure (SMILES),viability inhibition at highest dose (BT-474 Tam2),viability inhibition at highest dose (T-47D Tam1),viability inhibition at highest dose (T-47D Tam2),viability inhibition at highest dose (ZR-75-1 Tam2),viability inhibition at highest dose (BT-474; 4-OH-tamoxifen in medium 0 µM),viability inhibition at highest dose (BT-474; 4-OH-tamoxifen in medium 1 µM),viability inhibition at highest dose (BT-474 Tam1),viability inhibition at highest dose (MCF-7 Tam1),viability inhibition at highest dose (MCF-7; 4-OH-tamoxifen in medium 0 µM),viability inhibition at highest dose (MCF-7; 4-OH-tamoxifen in medium 1 µM),viability inhibition at highest dose (ZR-75-1; 4-OH-tamoxifen in medium 0 µM),viability inhibition at highest dose (ZR-75-1; 4-OH-tamoxifen in medium 1 µM),viability inhibition at highest dose (T-47D; 4-OH-tamoxifen in medium 0 µM),viability inhibition at highest dose (T-47D; 4-OH-tamoxifen in medium 1 µM),viability inhibition at highest dose (ZR-75-1 Tam1)
"O=P1(N(CCCl)CCCl)NCCCO1 (stereo not given) [Clafen (Cyclophosphamide, Endoxan)] (drug 40000 nM)",2.47,-3.65,11.9,-3.35,-4.59,-11.3,-0.665,1.76,-6.33,11,-3.78,-1.89,-14,-13.7,7.03
Nc1nc(Cl)nc2c1ncn2[C@@H]1O[C@H](CO)[C@@H](O)[C@@H]1F [Clofarabine] (drug 10000 nM),-3.66,38.6,27.8,22.2,-7.9,-34.5,-21.8,-1.02,32.2,10.4,21.8,14.8,35.1,43,23.6
CCN(CC)CCOc1ccc(C(=C(Cl)c2ccccc2)c2ccccc2)cc1 [Clomifene citrate] (drug 10000 nM),97.3,40.8,48.9,42.3,85.5,84,86.8,57.7,12.8,85.5,23.4,36.7,21.6,26.1,24.1
C[C@@H](Oc1cc(-c2cnn(C3CCNCC3)c2)cnc1N)c1c(Cl)ccc(F)c1Cl [Crizotinib] (drug 1000 nM),7.24,0.597,2.79,0.924,-4.38,-15.8,4.07,-0.481,0.562,6.55,-7.38,-5.41,-19.1,-7.52,0.927
CC1=C2C[C@H]3[C@@H](CC=C4C[C@@H](O)CC[C@@]43C)[C@@H]2CC[C@]12O[C@@H]1C[C@H](C)CN[C@H]1[C@H]2C [Cyclopamine] (drug 10000 nM),-2.39,-2.15,1.98,-6.35,-4.32,-7.93,0.632,-8.03,-20.5,-1.78,-9.96,-4.21,-17.5,-14,-2.07
Nc1ccn([C@@H]2O[C@H](CO)[C@@H](O)[C@@H]2O)c(=O)n1 [Cytarabine] (drug 10000 nM),1.43,30.6,-16.3,27.4,-5.7,11,22.1,6.46,29.1,12,39.3,13,36.9,6.47,28.3
CN(C)/N=N/c1[nH]cnc1C(N)=O [Dacarbazine] (drug 10000 nM),6.76,-0.257,-1.82,6.57,-13,-17.3,-7.07,-11.3,-17,10.7,-2.8,-13,-8.78,-10,0.27
Cc1c2oc3c(C)ccc(C(=O)N[C@@H]4C(=O)N[C@H](C(C)C)C(=O)N5CCC[C@H]5C(=O)N(C)CC(=O)N(C)[C@@H](C(C)C)C(=O)O[C@@H]4C)c3nc-2c(C(=O)N[C@@H]2C(=O)N[C@H](C(C)C)C(=O)N3CCC[C@H]3C(=O)N(C)CC(=O)N(C)[C@@H](C(C)C)C(=O)O[C@@H]2C)c(N)c1=O [Dactinomycin] (drug 1000 nM),88.4,63.4,62.7,60.9,36.7,81.9,95.6,61.6,74.5,72.2,45.4,53.8,49.2,31.5,55.6
Cn1c(=O)n(-c2ccc(C(C)(C)C#N)cc2)c2c3cc(-c4cnc5ccccc5c4)ccc3ncc21 [Dactolisib (NVP-BEZ235)] (drug 1000 nM),29.2,49.1,29.7,57,27.6,39.4,40.8,32.4,67.7,45,51,41.8,54.9,69.7,49.4
O=C(/C=C/c1cccnc1)NCCCCC1CCN(C(=O)c2ccccc2)CC1 [Daporinad (FK-866 HCl)] (drug 1000 nM),17.4,91.9,85.3,0.891,12.2,64.7,47.2,-5.53,76.6,67.9,-2.09,-11.5,92.2,90.2,-12.7
COc1cccc2c1C(=O)c1c(O)c3c(c(O)c1C2=O)C[C@@](O)(C(C)=O)C[C@@H]3O[C@H]1C[C@H](N)[C@H](O)[C@H](C)O1 [Daunorubicin] (drug 1000 nM),32.7,67.9,68.4,70.7,53.8,95.4,72.8,32.2,78.9,87.8,63.6,55.3,72.4,73.5,64.3
Nc1ncn([C@H]2C[C@H](O)[C@@H](CO)O2)c(=O)n1 [Decitabine (Dacogen)] (drug 10000 nM),-4.48,-9.55,-3.18,-2.91,-1.68,-2.07,-15.7,-12.3,17.6,2.36,-8.36,-6.99,-15,-11.2,-4.61
C[C@@H]1C[C@H]2[C@@H]3CCC4=CC(=O)C=C[C@]4(C)[C@@]3(F)[C@@H](O)C[C@]2(C)[C@@]1(O)C(=O)CO [Dexamethasone  (Decadron)] (drug 10000 nM),-0.0711,1.63,10.6,12.7,-8.58,-20.8,3.71,-7.5,-5.26,18,-4.79,-6.32,-14.5,-19,3.7
CC(=O)O[C@@]12CO[C@@H]1C[C@H](O)[C@@]1(C)C(=O)[C@H](O)C3=C(C)[C@@H](OC(=O)[C@H](O)[C@@H](NC(=O)OC(C)(C)C)c4ccccc4)C[C@@](O)([C@@H](OC(=O)c4ccccc4)[C@H]21)C3(C)C [Docetaxel] (drug 1000 nM),13.4,27.5,37.3,1.01,45.8,62.5,38.1,-2.6,31.6,24.3,-2.11,1.03,44.4,8.26,6.28
Cc1ccc(-n2nc(C(C)(C)C)cc2NC(=O)Nc2ccc(OCCN3CCOCC3)c3ccccc23)cc1 [Doramapimod (BIRB 796)] (drug 10000 nM),-5.97,-1.73,17,2.11,3.99,15,21,9.34,17.6,19.3,-1.07,0.647,6.71,-2.59,1.82
CN1CCN(c2ccc3nc(-c4c(N)c5c(F)cccc5[nH]c4=O)[nH]c3c2)CC1 [Dovitinib (CHIR-258)] (drug 10000 nM),-10.4,-4.27,4.9,-6.37,-10.4,-18.2,-12.6,-5.66,-32.5,-8.7,-10.6,-9.07,-16.4,-8.28,0.00734
COc1cccc2c1C(=O)c1c(O)c3c(c(O)c1C2=O)C[C@@](O)(C(=O)CO)C[C@@H]3O[C@H]1C[C@H](N)[C@H](O)[C@H](C)O1 [Doxorubicin] (drug 1000 nM),16.9,77.1,72.7,73.5,65,90.4,68.5,56.6,76.9,66.1,62.2,82.4,73,76.2,76.4
Nc1ccccc1NC(=O)c1ccc(CNC(=O)OCc2cccnc2)cc1 [Entinostat] (drug 10000 nM),53.2,60.3,10.9,27.5,61.4,83.9,79,5.52,62.3,40.4,33.7,10.2,66.4,36.6,28.8
CNC(=O)c1ccc(N2C(=S)N(c3ccc(C#N)c(C(F)(F)F)c3)C(=O)C2(C)C)cc1F [Enzalutamide (MDV 3100)] (drug 10000 nM),14.2,14,7.78,5.9,-1.06,-10,7.43,5.74,-11.1,14.2,-12.4,-0.801,-6.05,1.03,6.65
Cn1cc(C2=C(c3cn(C4CCN(Cc5ccccn5)CC4)c4ccccc34)C(=O)NC2=O)c2ccccc21 [Enzastaurin] (drug 10000 nM),-1.15,-9.95,-0.917,-0.91,-3.38,-20.9,-11.4,-11.6,-11,-13.8,-10.7,-19.1,-15.8,-13.2,1.19
